In US20180099931A1 (AbbVie S.à.r.l., priority 2016, published 2018):
Read-outs that look alike come from different tables or passages of the source.

Target: T1, F508delCFTR (Homo sapiens, UniProt P13569, DEL508-508)
T1 construct: expressed in transfected cells; host or cells: CFBE41o- human lung-derived epithelial cells (CFBE4lo-F508delCFTR-HRP), doxycycline-inducible
Assay: Cell Surface Expression-Horse Radish Peroxidase (CSE-HRP) Assay;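 on Maximum % activity (with co-corrector): co-corrector and positive control are both the same reference corrector at 2 µM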;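 on Maximum % activity (without co-corrector): percent of the 2 µM on-plate positive control corrector response above DMSO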
Type: cell-based
Conditions: for Emax / Maximum % activity (with co-corrector): maximum at any tested concentration, normalized to on-plate positive control; for Emax: read-out: Maximum % activity (without co-corrector)
Procedure: Cell Surface Expression-Horse Radish Peroxidase (CSE-HRP) Assay;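 on Maximum % activity (with co-corrector): co-corrector and positive control are both the same reference corrector at 2 µM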;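 on Maximum % activity (without co-corrector): percent of the 2 µM on-plate positive control corrector response above DMSO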
The development was achieved by expressing the F508delCFTR mutation along with a horseradish peroxidase (HRP) in the fourth exofacial loop, and then measuring the HRP activity using luminescence readout from these cells, CFBE4lo-F508delCFTR-HRP, that were incubated overnight with the test corrector compounds, either without or with the co-corrector. […] The test compounds were then added either without or with a co-corrector at the required concentrations and further incubated for 18-24 hours at 33° C. The highest concentration tested was 20 μM with an 8-point concentration response curve using a 3-fold dilution in both the test compound without or with the co-corrector. Three replicate plates were run to determine one EC50. All plates contained negative controls (dimethyl sulfoxide, DMSO) and positive control (2 μM of 3-[(2R,4R)-4-({[1-(2,2-difluoro-1,3-benzodioxol-5-yl)cyclopropyl]carbonyl}amino)-7-methoxy-3,4-dihydro-2H-chromen-2-yl]benzoic acid) as well as on-plate concentration response of the positive control. […] The raw counts from the experiment were analyzed using Accelrys® Assay Explorer v3.3.
1−[3*SDPositive Control+3*SDNegative Control/Absolute(MeanPositive Control−MeanNegative Control)]
wherein “SD” is standard deviation.
The % activity measured at each of the 8 test concentrations of the test compound added either without or with a co-corrector (2 μM of 3-[(2R,4R)-4-({[1-(2,2-difluoro-1,3-benzodioxol-5-yl)cyclopropyl]carbonyl}amino)-7-methoxy-3,4-dihydro-2H-chromen-2-yl]benzoic acid) was normalized to the on-plate positive control using the following formulae:
% activity(Test compound without co-corrector)=[(test compound without co-corrector response−DMSO response)/(positive control response−DMSO response)]*100
% activity(Test compound with co-corrector)=[(test compound with co-corrector response−DMSO response)/(positive control response−DMSO response)]*100
The maximum % activity achieved for the test compound either without or with a co-corrector at any tested concentration is presented in Table 4 along with the respective EC50's calculated using the following general sigmoidal curve with variable Hill slope equation (described as Model 42 in the Accelrys® Assay Explorer v3.3 software):
General sigmoidal curve with concentration, response, top, bottom, EC50 and Hill slope. This model describes a sigmoidal curve with an adjustable baseline, a. The equation can be used to fit curves where response is either increasing or decreasing with respect to the independent variable, “x”.
“x” is a concentration of drug under test. “y” is the response. “a” is the maximum response, and “d” is the minimum response “c” is the inflection point (EC50) for the curve. That is, “y” is halfway between the lower and upper asymptotes when x=c. “b” is the slope-factor or Hill coefficient. The sign of b is positive when the response increases with increasing dose and is negative when the response decreases with increasing dose (inhibition).

[1] = test compound without co-corrector
[2] = test compound without co-corrector, read-out: EC50 (without co-corrector)
[3] = with co-corrector (2 μM of 3-[(2R,4R)-4-({[1-(2,2-difluoro-1,3-benzodioxol-5-yl)cyclopropyl]carbonyl}amino)-7-methoxy-3,4-dihydro-2H-chromen-2-yl]benzoic acid)
[4] = with co-corrector (2 μM of 3-[(2R,4R)-4-({[1-(2,2-difluoro-1,3-benzodioxol-5-yl)cyclopropyl]carbonyl}amino)-7-methoxy-3,4-dihydro-2H-chromen-2-yl]benzoic acid), read-out: EC50 (with co-corrector)
[5] = CSE-HRP, test compound without co-corrector, read-out: EC50 (without co-corrector)
[6] = CSE-HRP, with co-corrector (2 μM of 3-[(2R,4R)-4-({[1-(2,2-difluoro-1,3-benzodioxol-5-yl)cyclopropyl]carbonyl}amino)-7-methoxy-3,4-dihydro-2H-chromen-2-yl]benzoic acid), read-out: EC50 (with co-corrector)
[7] = CSE-HRP, with co-corrector (2 μM)

T1 sequence (P13569 with tags, fused parts or gaps DEL508-508): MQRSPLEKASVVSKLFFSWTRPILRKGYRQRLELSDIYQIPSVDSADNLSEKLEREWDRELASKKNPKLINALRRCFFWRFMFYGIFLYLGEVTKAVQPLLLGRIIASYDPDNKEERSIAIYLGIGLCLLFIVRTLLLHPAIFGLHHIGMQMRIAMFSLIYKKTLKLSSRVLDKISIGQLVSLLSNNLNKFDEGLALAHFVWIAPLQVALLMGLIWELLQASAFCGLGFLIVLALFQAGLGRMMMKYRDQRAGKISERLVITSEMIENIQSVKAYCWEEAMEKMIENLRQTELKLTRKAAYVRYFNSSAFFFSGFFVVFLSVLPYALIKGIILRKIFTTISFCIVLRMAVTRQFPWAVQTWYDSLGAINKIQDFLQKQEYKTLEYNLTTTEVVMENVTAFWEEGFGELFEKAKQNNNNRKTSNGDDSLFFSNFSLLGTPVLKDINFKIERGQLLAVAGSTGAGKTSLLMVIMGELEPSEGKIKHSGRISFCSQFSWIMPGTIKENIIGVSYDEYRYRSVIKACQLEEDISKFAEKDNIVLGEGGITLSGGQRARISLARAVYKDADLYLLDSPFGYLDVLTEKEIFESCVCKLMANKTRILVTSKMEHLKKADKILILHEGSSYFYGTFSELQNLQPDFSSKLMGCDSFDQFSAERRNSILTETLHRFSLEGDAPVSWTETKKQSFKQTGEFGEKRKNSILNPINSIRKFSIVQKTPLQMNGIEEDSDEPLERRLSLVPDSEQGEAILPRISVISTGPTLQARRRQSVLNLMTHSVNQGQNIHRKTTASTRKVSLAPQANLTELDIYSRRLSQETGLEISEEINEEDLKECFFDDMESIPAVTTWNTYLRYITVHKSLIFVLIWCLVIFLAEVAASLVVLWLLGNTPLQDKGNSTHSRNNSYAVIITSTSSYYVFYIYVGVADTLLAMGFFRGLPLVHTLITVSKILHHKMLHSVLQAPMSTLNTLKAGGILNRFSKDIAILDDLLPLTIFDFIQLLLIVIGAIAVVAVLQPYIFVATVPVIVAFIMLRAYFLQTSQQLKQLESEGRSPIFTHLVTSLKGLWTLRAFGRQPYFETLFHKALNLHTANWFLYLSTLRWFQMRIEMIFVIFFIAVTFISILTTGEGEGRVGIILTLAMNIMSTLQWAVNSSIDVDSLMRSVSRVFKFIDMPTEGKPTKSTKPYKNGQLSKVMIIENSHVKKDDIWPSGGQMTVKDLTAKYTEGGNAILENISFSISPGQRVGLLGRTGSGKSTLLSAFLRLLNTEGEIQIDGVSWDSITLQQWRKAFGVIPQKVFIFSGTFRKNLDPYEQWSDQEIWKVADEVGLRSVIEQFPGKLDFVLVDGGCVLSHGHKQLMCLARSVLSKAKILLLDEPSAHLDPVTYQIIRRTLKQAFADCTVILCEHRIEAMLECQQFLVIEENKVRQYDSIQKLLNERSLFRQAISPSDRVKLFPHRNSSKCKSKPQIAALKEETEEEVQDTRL

| Emax [1] [%] | EC50 [2] [nM] | Maximum % activity (with co-corrector) [3] | EC50 [4] [nM] | Maximum % activity (with co-corrector) (with co-corrector (2 μM)) | Emax (without co-corrector) [%] | EC50 [5] [nM] | EC50 [6] [nM] | Maximum % activity (with co-corrector) [7] | Emax (CSE-HRP, without co-corrector) [%] | Compound |
| --- | --- | --- | --- | --- | --- | --- | --- | --- | --- | --- |
| < 100 | 1000 to 10000 | ++ (≥150 and <350) | 1000 to 10000 | – | – | – | – | – | – | COc1ccc2c(c1)[C@](C)(C(=O)N1[C@H](C(=O)O)[C@@H](C(C)(C)C)[C@H](NCc3cc(C(C)(C)C)ccc3OC)[C@@H]1c1cccnc1OC)CC2 [II-570] |
| < 100 | 1000 to 10000 | ++ (≥150 and <350) | 1000 to 10000 | – | – | – | – | – | – | COc1ccc(C(C)(C)C)cc1CN[C@H]1[C@H](C(C)(C)C)[C@@H](C(=O)O)N(C(=O)[C@@H](C)c2ccccc2)[C@H]1c1cccnc1OC [II-539] |
| < 100 | 1000 to 10000 | – | 1000 to 10000 | ++ (≥150 and <350) | – | – | – | – | – | Cc1cc(CN[C@H]2[C@H](C(C)(C)C)[C@@H](C(=O)O)N(C(=O)C3CCCCC3)[C@H]2c2ccccc2)cc(C)c1OC(F)F [III-141] |
| > 200 | < 1000 | – | < 1000 | +++ (≥350) | – | – | – | – | – | COc1ccc(C(C)(C)C)cc1CN[C@H]1[C@H](C(C)(C)C)[C@@H](C(=O)O)N(C(=O)C2CCCC2(C)C)[C@H]1c1ccccc1 (stereo partly shown) [III-204] |
| > 200 | 1000 to 10000 | +++ (≥350) | 1000 to 10000 | – | – | – | – | – | – | COc1ccc(C2(C(F)(F)F)CC2)cc1CN[C@H]1[C@H](C(C)(C)C)[C@@H](C(=O)O)N(C(=O)OC(C)C)[C@H]1c1cccnc1N(C)C [II-559] |
| < 100 | 1000 to 10000 | – | 1000 to 10000 | ++ (≥150 and <350) | – | – | – | – | – | CC(C)(C)[C@H]1[C@H](Nc2nc(Cl)c(F)cc2C#N)[C@H](c2ccccc2)N(C(=O)C2CCCCC2)[C@@H]1C(=O)O [III-145] |
| > 200 | < 1000 | – | < 1000 | +++ (≥350) | – | – | – | – | – | COc1ccc(C(C)(C)C)cc1CN[C@H]1[C@H](C(C)(C)C)[C@@H](C(=O)O)N(C(=O)C2C3C2[C@H]2CC[C@@H]3C2)[C@H]1c1ccccc1 (stereo partly shown) [III-192] |
| 100 to 200 | 1000 to 10000 | +++ (≥350) | 1000 to 10000 | – | – | – | – | – | – | COc1cc2c(cc1CN[C@H]1[C@H](C(C)(C)C)[C@@H](C(=O)O)N(C(=O)OC(C)C)[C@H]1c1cccnc1N(C)C)CCCC2 [II-565] |
| < 100 | > 10000 | ++ (≥150 and <350) | 1000 to 10000 | – | – | – | – | – | – | COc1cccnc1CN[C@@H]1[C@@H](C(C)(C)C)[C@H](C(=O)O)N(C(=O)C2CCCCC2)[C@@H]1c1ccccc1 (racemic) [III-21] |

Second part, the molecule before the results:

| Compound | Emax [1] [%] | EC50 [2] [nM] | Maximum % activity (with co-corrector) [3] | EC50 [4] [nM] | Maximum % activity (with co-corrector) (with co-corrector (2 μM)) | Emax (without co-corrector) [%] | EC50 [5] [nM] | EC50 [6] [nM] | Maximum % activity (with co-corrector) [7] | Emax (CSE-HRP, without co-corrector) [%] |
| --- | --- | --- | --- | --- | --- | --- | --- | --- | --- | --- |
| COc1ccc(C(C)(C)C)cc1CN[C@H]1[C@H](C(C)(C)C)[C@@H](C(=O)O)N(C(=O)[C@@H]2CCCCO2)[C@H]1c1cccnc1OC [Example I-209] | – | 1000 to 10000 | – | 1000 to 10000 | +++ (≥350) | > 200 | – | – | – | – |
| COc1ccc(C(C)(C)C)cc1CN[C@H]1[C@H](C(C)(C)C)[C@@H](C(=O)O)N(C(=O)[C@]2(C)CCc3c(OC)cccc32)[C@H]1c1ccccc1 [II-366] | 100 to 200 | 1000 to 10000 | +++ (≥350) | 1000 to 10000 | – | – | – | – | – | – |
| COc1ccc(S(F)(F)(F)(F)F)cc1CN[C@H]1[C@H](C(C)(C)C)[C@@H](C(=O)O)N(C(=O)C2CCCCC2)[C@H]1c1ccccc1 [Example I-86] | – | < 1000 | – | < 1000 | +++ (≥350) | 100 to 200 | – | – | – | – |
| COc1cc2ccccc2cc1CN[C@H]1[C@H](C(C)(C)C)[C@@H](C(=O)O)N(C(=O)C2CCCCC2)[C@H]1c1ccccc1 [Example I-42] | – | 1000 to 10000 | – | < 1000 | +++ (≥350) | > 200 | – | – | – | – |
| CC(C)(C)[C@H]1[C@H](NCc2cc(Cl)ccc2OC(F)F)[C@H](c2ccccc2)N(C(=O)C2CCCCC2)[C@@H]1C(=O)O [II-107] | – | – | – | – | – | – | < 1000 | 1000 to 10000 | +++ (≥350) | < 100 |
| COc1ccc(C(C)(C)C)cc1CN[C@H]1[C@H](C(C)(C)C)[C@@H](C(=O)O)N(C(=O)C2CCCC(F)(F)C2)[C@H]1c1cccnc1N(C)C (single isomer, unassigned) [Example 42, (2S,3S,4S,5S)-3-tert-butyl-4-{[(5-tert-butyl-2-methoxyphenyl)methyl]amino}-1-[(1R*)-3,3-difluorocyclohexane-1-carbonyl]-5-[2-(dimethylamino)pyridin-3-yl]pyrrolidine-2-carboxylic acid] | – | < 1000 | – | < 1000 | +++ (≥350) | > 200 | – | – | – | – |
| COc1ncccc1CN[C@@H]1[C@@H](C(C)(C)C)[C@H](C(=O)O)N(C(=O)C2CCCCC2)[C@@H]1c1ccccc1 (racemic) [II-6] | – | – | – | – | – | – | 1000 to 10000 | 1000 to 10000 | +++ (≥350) | 100 to 200 |
| CCC(C)(O)CC(=O)N1[C@H](C(=O)O)[C@@H](C(C)(C)C)[C@H](NCc2cc(C(C)(C)C)ccc2OC)[C@@H]1c1ccccc1 (stereo partly shown) [II-371] | > 200 | 1000 to 10000 | +++ (≥350) | 1000 to 10000 | – | – | – | – | – | – |
| COc1ccc(C(C)(C)C)cc1CN[C@H]1[C@H](C(C)(C)C)[C@@H](C(=O)O)N(C(=O)c2cnn3c2CCCC3)[C@H]1c1ccccc1 [II-364] | 100 to 200 | 1000 to 10000 | +++ (≥350) | 1000 to 10000 | – | – | – | – | – | – |
| COc1ccc(C(C)(C)C)cc1CN[C@H]1[C@H](C(C)(C)C)[C@@H](C(=O)O)N(C(=O)C2CCCCC2)[C@H]1c1ccccc1O [Example I-310] | – | – | – | – | – | – | 1000 to 10000 | < 1000 | +++ (≥350) | > 200 |
| COc1ccc(C(C)(C)C)cc1CN[C@H]1[C@H](C(C)(C)C)[C@@H](C(=O)O)N(C(=O)C2CCCCS2(=O)=O)[C@H]1c1ccccc1 (stereo partly shown) [II-153] | – | – | – | – | – | – | 1000 to 10000 | 1000 to 10000 | +++ (≥350) | > 200 |
| COc1ccc(C(F)(F)F)cc1CN[C@H]1[C@H](C(C)(C)C)[C@@H](C(=O)O)N(C(=O)[C@@H](C)OC)[C@H]1c1ccccc1 [II-120] | – | – | – | – | – | – | 1000 to 10000 | 1000 to 10000 | +++ (≥350) | 100 to 200 |
| COc1ccc2ccccc2c1CN[C@H]1[C@H](C(C)(C)C)[C@@H](C(=O)O)N(C(=O)C2CCCCC2)[C@H]1c1ccccc1 [Example I-188] | – | 1000 to 10000 | – | 1000 to 10000 | ++ (≥150 and <350) | < 100 | – | – | – | – |
| COc1cc(C(F)(F)F)ccc1CN[C@H]1[C@H](C(C)(C)C)[C@@H](C(=O)O)N(C(=O)C2OC[C@@H]3CCC[C@H]23)[C@H]1c1ccccc1 (stereo partly shown) [II-241] | – | – | – | – | – | – | 1000 to 10000 | 1000 to 10000 | +++ (≥350) | 100 to 200 |
| COc1ncc(C2=CCOCC2)cc1CN[C@H]1[C@H](C(C)(C)C)[C@@H](C(=O)O)N(C(=O)C2CCCCC2)[C@H]1c1ccccc1 [II-349] | < 100 | 1000 to 10000 | +++ (≥350) | 1000 to 10000 | – | – | – | – | – | – |
| COc1ccc(C(C)(C)C)cc1N[C@H]1[C@H](C(C)(C)C)[C@@H](C(=O)O)N(C(=O)C2CCCCC2)[C@H]1c1ccccc1 [Example I-82] | – | 1000 to 10000 | – | 1000 to 10000 | +++ (≥350) | < 100 | – | – | – | – |
